Tests used:
rat osteoblastic cells [1] = assay: Alkaline phosphatase (ALP) stain of osteoblastic culture (Example 1); format: cell-based; conditions: NAC added into osteoblastic culture, day 7; dose-dependent up to 5 mM; p<0.001 vs without NAC
Method: Bone marrow cells isolated from the femur of 8-week-old male Sprague-Dawley rats were placed into alpha-modified Eagle's medium supplemented with 15% fetal bovine serum, 50 µg/ml ascorbic acid, 10^−8M dexamethasone, 10 mM Na-β-glycerophosphate and Antibiotic-antimycotic solution containing 10,000 units/ml Penicillin G sodium, 10,000 mg/ml Streptomycin sulfate and 25 mg/ml Amphotericin B. Cells were incubated in a humidified atmosphere of 95% air, 5% CO2 at 37° C. At 80% confluency, the cells were detached using 0.25% Trypsin-1 mM EDTA-4Na and seeded either the polystyrene dish with or without NAC addition, bone substitute material (demineralized bone matrix, Orthoblast, IsoTis OrthoBiologics, Inc. Irvine, Calif.), collagen gel (PureCol, Inamed, Fremont, Calif.) or bone cement (Endurance MV, DePuy Orthopaedics, Warsaw, Ind.) with or without NAC incorporation at a density of 4×10^4 cells/cm^2. The culture medium was renewed every three days. The NAC incorporated bone graft substitute and collagen membrane materials were prepared by soaking each of the materials in NAC for 24 hours. The NAC-incorporated collagen gel was prepared by mixing the collagen gel and NAC. […] The stained images were analyzed for ALP positive area defined as [(stained area/total dish area)×100)] […] Three independent cultures were evaluated in each the experimental groups.

rat osteoblastic cells [2] = assay: Mineralization assays, Von Kossa and Alizarin Red stain (Example 1); format: cell-based; conditions: NAC added into culture medium, day 14; dose-dependent; p<0.001
Method: Bone marrow cells isolated from the femur of 8-week-old male Sprague-Dawley rats were placed into alpha-modified Eagle's medium supplemented with 15% fetal bovine serum, 50 µg/ml ascorbic acid, 10^−8M dexamethasone, 10 mM Na-β-glycerophosphate and Antibiotic-antimycotic solution containing 10,000 units/ml Penicillin G sodium, 10,000 mg/ml Streptomycin sulfate and 25 mg/ml Amphotericin B. Cells were incubated in a humidified atmosphere of 95% air, 5% CO2 at 37° C. At 80% confluency, the cells were detached using 0.25% Trypsin-1 mM EDTA-4Na and seeded either the polystyrene dish with or without NAC addition, bone substitute material (demineralized bone matrix, Orthoblast, IsoTis OrthoBiologics, Inc. Irvine, Calif.), collagen gel (PureCol, Inamed, Fremont, Calif.) or bone cement (Endurance MV, DePuy Orthopaedics, Warsaw, Ind.) with or without NAC incorporation at a density of 4×10^4 cells/cm^2. The culture medium was renewed every three days. The NAC incorporated bone graft substitute and collagen membrane materials were prepared by soaking each of the materials in NAC for 24 hours. The NAC-incorporated collagen gel was prepared by mixing the collagen gel and NAC. […] (%) was measured using a digitized image analysis system (Image Pro-plus, Media Cybernetics, MD). Three independent cultures were evaluated in each of the experimental groups.

osteoblastic culture = assay: Gene expression analysis of bone-related genes by RT-PCR (Example 1); format: cell-based, rat; conditions: relative to GAPDH
Method: Bone marrow cells isolated from the femur of 8-week-old male Sprague-Dawley rats were placed into alpha-modified Eagle's medium supplemented with 15% fetal bovine serum, 50 µg/ml ascorbic acid, 10^−8M dexamethasone, 10 mM Na-β-glycerophosphate and Antibiotic-antimycotic solution containing 10,000 units/ml Penicillin G sodium, 10,000 mg/ml Streptomycin sulfate and 25 mg/ml Amphotericin B. Cells were incubated in a humidified atmosphere of 95% air, 5% CO2 at 37° C. At 80% confluency, the cells were detached using 0.25% Trypsin-1 mM EDTA-4Na and seeded either the polystyrene dish with or without NAC addition, bone substitute material (demineralized bone matrix, Orthoblast, IsoTis OrthoBiologics, Inc. Irvine, Calif.), collagen gel (PureCol, Inamed, Fremont, Calif.) or bone cement (Endurance MV, DePuy Orthopaedics, Warsaw, Ind.) with or without NAC incorporation at a density of 4×10^4 cells/cm^2. The culture medium was renewed every three days. The NAC incorporated bone graft substitute and collagen membrane materials were prepared by soaking each of the materials in NAC for 24 hours. The NAC-incorporated collagen gel was prepared by mixing the collagen gel and NAC. The expression of bone-related genes was analyzed using the reverse transcription-polymerase chain reaction (RT-PCR). Total RNA in the cultures was extracted using TRIzol (Invitrogen, Carlsbad, Calif.) and purification column (RNeasy, Qiagen, Valencia, Calif.). Following DNAse I treatment, reverse transcription of 0.5 μg of total RNA was performed using MMLV reverse transcriptase (Clontech, Carlsbad, Calif.) in the presence of oligo(dT) primer (Clontech, Carlsbad, Calif.). The PCR reaction was performed using Taq DNA polymerase (EX Taq, Takara Bio, Madison, Wis.) to detect alpha-I type I collagen (collagen I), osteopontin, and osteocalcin mRNA. The primer sequences and PCR conditions are described previously. Resulting products were visualized on 1.5% agarose gel with ethidium bromide staining. The intensity of bands was quantified under UV light, and the values were normalized with reference to GAPDH mRNA.

In the case of `CC(=O)N[C@@H](CS)C(=O)O` [NAC, N-acetyl cysteine], the “alkaline phosphatase activity (ALP positive area)” value (rat osteoblastic cells [1]) is reported as “increased”, the “Von Kossa positive area (mineralizing capability)” value (rat osteoblastic cells [2]) is reported as “significantly increased” and the “gene expression level of Bmp2” value (osteoblastic culture; NAC addition to the culture) is reported as “significantly elevated”. The “gene expression level of Runx2/cbfa1” value (osteoblastic culture; NAC addition to the culture) was “significantly elevated”, the osteocalcin expression (osteoblastic culture; culture with NAC, early stage of day 3) was “upregulated” and the “expression of collagen I” value (osteoblastic culture; culture with NAC, up to day 14) was “upregulated”. The expression of osteopontin (osteoblastic culture; culture with NAC, up to day 14) was “upregulated”.

From patent publication US8101198B2, “Osteogenic enhancer composition” (The Regents of the University of California, priority 2007, dated 2012)
